Source: PubChem BioAssay AID248 (DTP/NCI, 2004)
Toxic doses and inconclusive results are not listed. No stated cut-off is given here; in the data, active means T/C of 150% or more; inactive means T/C below 125%.

System: L1210 leukemia ip in BDF1 mice, survival T/C
Test: NCI In Vivo Anticancer Drug Screen. Data for tumor model L1210 Leukemia (intraperitoneal) in B6D2F1 (BDF1) mice
Details: endpoint: mean survival time, higher = longer survival
In short: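 In this screen, tumor-bearing mice given compound are compared to those given vehicle, and their survival values are reported as a treated-to-control quotient.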

[1] = dose: 100.0 mg/kg/injection, schedule: Q01DX001 (ip), vehicle: Klucel (hydroxypropylcellulose) (HPC)
[2] = dose: 200.0 mg/kg/injection, schedule: Q01DX001 (ip), vehicle: Klucel (hydroxypropylcellulose) (HPC)
[3] = dose: 400.0 mg/kg/injection, schedule: Q01DX001 (ip), vehicle: Klucel (hydroxypropylcellulose) (HPC)
[4] = dose: 100.0 mg/kg/injection, schedule: Q04DX002 (ip), vehicle: Klucel (hydroxypropylcellulose) (HPC)
[5] = dose: 200.0 mg/kg/injection, schedule: Q04DX002 (ip), vehicle: Klucel (hydroxypropylcellulose) (HPC)
[6] = dose: 100.0 mg/kg/injection, schedule: Q04DX003 (ip), vehicle: saline
[7] = dose: 200.0 mg/kg/injection, schedule: Q04DX003 (ip), vehicle: saline
[8] = dose: 400.0 mg/kg/injection, schedule: Q04DX003 (ip), vehicle: saline
[9] = dose: 150.0 mg/kg/injection, schedule: Q01DX009 (ip), vehicle: saline with Tween-80
[10] = dose: 300.0 mg/kg/injection, schedule: Q01DX009 (ip), vehicle: saline with Tween-80
[11] = dose: 100.0 mg/kg/injection, schedule: Q01DX001 (ip), vehicle: saline
[12] = dose: 200.0 mg/kg/injection, schedule: Q01DX001 (ip), vehicle: saline
[13] = dose: 200.0 mg/kg/injection, schedule: Q01DX009 (ip), vehicle: Klucel (hydroxypropylcellulose) (HPC)
[14] = dose: 100.0 mg/kg/injection, schedule: Q01DX009 (ip), vehicle: saline with Tween-80
[15] = dose: 100.0 mg/kg/injection, schedule: Q04DX003 (ip), vehicle: saline with Tween-80
[16] = dose: 5.0 mg/kg/injection, schedule: Q01DX001 (ip), vehicle: saline
[17] = dose: 10.0 mg/kg/injection, schedule: Q01DX001 (ip), vehicle: saline
[18] = dose: 20.0 mg/kg/injection, schedule: Q01DX001 (ip), vehicle: saline

Measured: T/C

O=C(C=c1sc(=CC(=O)c2ccccc2)s1)c1ccccc1
inactive: [1] 97 % of control | [2] 97 % of control | [3] 97 % of control

O=[N+]([O-])c1ccc(C=Nc2ccc3c(c2)C(Br)c2ccccc2-3)cc1 (centres undefined)
inactive: dose: 100.0 mg/kg/injection, schedule: Q01DX Z (ip), vehicle: saline 91 % of control | dose: 200.0 mg/kg/injection, schedule: Q01DX Z (ip), vehicle: saline 90 % of control | dose: 400.0 mg/kg/injection, schedule: Q01DX Z (ip), vehicle: saline 95 % of control

CC(=O)C1CCCC(=O)/C=C/C(=O)O1 (centres undefined)
inactive: [4] 92 % of control | [5] 100 % of control

Cc1[nH]c(=O)[nH]c(=O)c1N(CCO)CCF
inactive: [6] 98 % of control | [7] 101 % of control | [8] 97 % of control

O=C(O)C1(C(=O)O)CC(c2ccccc2)C1
inactive: dose: 75.0 mg/kg/injection, schedule: Q04DX003 (ip), vehicle: saline with Tween-80 101 % of control | [9] 91 % of control | dose: 150.0 mg/kg/injection, schedule: Q04DX003 (ip), vehicle: saline with Tween-80 95 % of control | [10] 91 % of control | dose: 300.0 mg/kg/injection, schedule: Q04DX003 (ip), vehicle: saline with Tween-80 101 % of control

O=C(/C=C/c1ccccc1)C1(c2ccccc2)CC1
inactive: [1] 98 % of control | [2] 100 % of control | [3] 98 % of control

N#Cc1ncc(-c2ccc(Cl)cc2)nc1Cl
inactive: dose: 100.0 mg/kg/injection, schedule: Q01DX009 (ip), vehicle: saline 105 % of control | [6] 91 % of control | dose: 200.0 mg/kg/injection, schedule: Q01DX009 (ip), vehicle: saline 113 % of control | [7] 93 % of control | [8] 95 % of control

CSc1nccc2c1ncn2C1OC(CO)C(O)C1O (centres undefined)
inactive: [11] 104 % of control | [12] 95 % of control

O=C(Oc1cccc(OC(=O)c2ccc(Cl)cc2)c1)c1ccc(Cl)cc1
inactive: [1] 100 % of control | dose: 100.0 mg/kg/injection, schedule: Q01DX009 (ip), vehicle: Klucel (hydroxypropylcellulose) (HPC) 112 % of control | [2] 100 % of control | [13] 110 % of control | [3] 93 % of control | dose: 400.0 mg/kg/injection, schedule: Q01DX009 (ip), vehicle: Klucel (hydroxypropylcellulose) (HPC) 108 % of control

COc1ccc([I+]c2ccccc2)cc1
inactive: dose: 6.25 mg/kg/injection, schedule: Q04DX003 (ip), vehicle: saline 98 % of control | dose: 9.0 mg/kg/injection, schedule: Q01DX009 (ip), vehicle: saline 104 % of control | dose: 12.5 mg/kg/injection, schedule: Q04DX003 (ip), vehicle: saline 101 % of control | dose: 25.0 mg/kg/injection, schedule: Q01DX001 (ip), vehicle: saline with Tween-80 102 % of control | dose: 25.0 mg/kg/injection, schedule: Q01DX009 (ip), vehicle: saline with Tween-80 102 % of control | dose: 25.0 mg/kg/injection, schedule: Q04DX003 (ip), vehicle: saline with Tween-80 98 % of control | dose: 25.0 mg/kg/injection, schedule: Q04DX003 (ip), vehicle: saline 109 % of control | dose: 36.0 mg/kg/injection, schedule: Q04DX003 (ip), vehicle: saline 95 % of control | dose: 50.0 mg/kg/injection, schedule: Q01DX001 (ip), vehicle: saline with Tween-80 102 % of control | dose: 50.0 mg/kg/injection, schedule: Q01DX009 (ip), vehicle: saline with Tween-80 111 % of control | dose: 50.0 mg/kg/injection, schedule: Q04DX003 (ip), vehicle: saline with Tween-80 93 % of control | dose: 100.0 mg/kg/injection, schedule: Q01DX001 (ip), vehicle: saline with Tween-80 98 % of control | [14] 105 % of control | [15] 97 % of control

Cc1csc2[nH]c(=O)[nH]c(=O)c12
inactive: dose: 100.0 mg/kg/injection, schedule: Q01DX009 (ip), vehicle: water 104 % of control | dose: 100.0 mg/kg/injection, schedule: Q04DX003 (ip), vehicle: water 112 % of control | dose: 200.0 mg/kg/injection, schedule: Q04DX003 (ip), vehicle: water 115 % of control | dose: 400.0 mg/kg/injection, schedule: Q01DX009 (ip), vehicle: water 86 % of control | dose: 400.0 mg/kg/injection, schedule: Q04DX003 (ip), vehicle: water 118 % of control

CCCC(NC(=O)C(C)Br)C(=O)O (centres undefined)
inactive: [14] 88 % of control | dose: 200.0 mg/kg/injection, schedule: Q01DX009 (ip), vehicle: saline with Tween-80 98 % of control | dose: 400.0 mg/kg/injection, schedule: Q01DX009 (ip), vehicle: saline with Tween-80 95 % of control

C[N+]1(C)OCC2CCCC(c3ccccc3)C21 (centres undefined)
inactive: dose: 12.5 mg/kg/injection, schedule: Q01DX001 (ip), vehicle: saline 104 % of control | dose: 25.0 mg/kg/injection, schedule: Q01DX001 (ip), vehicle: saline 102 % of control | dose: 50.0 mg/kg/injection, schedule: Q01DX001 (ip), vehicle: saline 98 % of control

Nc1c(OCCc2ccccc2)cccc1C(=O)O
inactive: [1] 97 % of control | [2] 96 % of control | [3] 93 % of control

CN(C)CCOC(=O)c1ccccc1CBr
inactive: dose: 25.0 mg/kg/injection, schedule: Q01DX009 (ip), vehicle: saline 97 % of control | dose: 50.0 mg/kg/injection, schedule: Q01DX009 (ip), vehicle: saline 95 % of control | dose: 75.0 mg/kg/injection, schedule: Q01DX009 (ip), vehicle: saline 93 % of control

CC(=O)Nc1ccc(S(=O)(=O)SC(F)(F)F)cc1
inactive: [16] 97 % of control | [17] 98 % of control | [18] 101 % of control

O=C1CN(CCN2CC(=O)N(Cc3ccccc3)C2=S)C(=S)N1Cc1ccccc1
inactive: [4] 88 % of control | [5] 88 % of control | dose: 400.0 mg/kg/injection, schedule: Q04DX002 (ip), vehicle: Klucel (hydroxypropylcellulose) (HPC) 92 % of control

COC(=N)Cc1ccc(F)cc1
inactive: dose: 75.0 mg/kg/injection, schedule: Q01DX009 (ip), vehicle: saline with Tween-80 111 % of control | [9] 112 % of control | [10] 112 % of control

O=C(Nc1ccc2c(c1)Cc1cccc(NC(=O)C(Cl)Cl)c1-2)C(Cl)Cl
inactive: dose: 50.0 mg/kg/injection, schedule: Q01DX009 (ip), vehicle: Klucel (hydroxypropylcellulose) (HPC) 95 % of control | [13] 89 % of control

N#Cc1ccc2cn[nH]c2c1
inactive: [15] 92 % of control | dose: 200.0 mg/kg/injection, schedule: Q04DX003 (ip), vehicle: saline with Tween-80 101 % of control | dose: 400.0 mg/kg/injection, schedule: Q04DX003 (ip), vehicle: saline with Tween-80 99 % of control

COc1ccc(Cc2ccc3c(C)cc(Cl)nc3c2)cc1
inactive: [11] 98 % of control | [12] 103 % of control | dose: 400.0 mg/kg/injection, schedule: Q01DX001 (ip), vehicle: saline 108 % of control

CCOC(=O)CC(=O)C(F)(F)F.CCOC(=O)CC(=O)C(F)(F)F.[Ni]
inactive: [16] 96 % of control | [17] 98 % of control | [18] 102 % of control | dose: 40.0 mg/kg/injection, schedule: Q01DX001 (ip), vehicle: saline 106 % of control
